Each compound was assayed against GST tagged IRAK4 (Homo sapiens (Human), UniProt Q9NWZ3) (assay: Determination of IRAK4 kinase activity (IMAP fluorescence polarization)). Settings: 0.5 nM GST tagged IRAK4, 100 nM fluorescent peptide substrate RP7030, 100 μM ATP, 30 minutes at 25° C.
Format: biochemical
Description: The kinase activity of IRAK4 is determined by its ability to catalyze the phosphorylation of a fluorescent polypeptide substrate. The extent of phosphorylation is measured using IMAP technology (Molecular Devices) where the phosphorylated fluorescent substrate binds to the large M(III)-based nanoparticles which reduces the rotational speed of the substrate and thus increases its fluorescent polarization (FP).
Procedure: A 20 μl reaction mixture contains 10 mM TriHCl, pH 7.2, 0.5 nM GST tagged IRAK4 (SignalChem), 100 nM fluorescent peptide substrate (RP7030, Molecular Devices), 100 μM ATP, 1 mM DTT, 1 mM MgCl2, and 0.01% Tween 20. The reaction is initiated by the addition of ATP. After incubation for 30 minutes at 25° C., 60 μl of Progressive IMAP Reagent (Molecular Devices) is added to stop the reaction. Change in RP7030's FP is determined by a FP reader (Analyst HT, LJL BioSystems).

Sequence of GST tagged IRAK4 (Q9NWZ3 whole entry): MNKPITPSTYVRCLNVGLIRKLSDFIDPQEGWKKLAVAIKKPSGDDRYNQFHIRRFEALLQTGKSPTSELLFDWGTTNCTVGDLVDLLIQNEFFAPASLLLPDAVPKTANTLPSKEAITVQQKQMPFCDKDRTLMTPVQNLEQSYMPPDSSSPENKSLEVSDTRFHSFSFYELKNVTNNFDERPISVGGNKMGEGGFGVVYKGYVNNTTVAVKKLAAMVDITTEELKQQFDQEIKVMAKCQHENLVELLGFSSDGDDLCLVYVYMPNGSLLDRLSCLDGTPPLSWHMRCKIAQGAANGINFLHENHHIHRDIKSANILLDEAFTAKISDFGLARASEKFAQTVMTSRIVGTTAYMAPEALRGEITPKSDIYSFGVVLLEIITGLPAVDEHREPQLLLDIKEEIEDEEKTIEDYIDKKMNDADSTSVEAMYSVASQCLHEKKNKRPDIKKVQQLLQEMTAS

SMILES	IC50
Cn1cc(NC(=O)c2cccc(-c3ccc(C4CC4)nc3)n2)c(C(N)=O)n1 [Example 28, N-(3-carbamoyl-1-methyl-1H-pyrazol-4-yl)-6′-cyclopropyl-[2,3′-bipyridine]-6-carboxamide]	0.094 µM
CN1CCCC(CNC(=O)c2nn(C)cc2NC(=O)c2cccc(-c3ccnc(NCC4CC4)c3)n2)C1 (stereo not drawn) [Example 49, 2′-((cyclopropylmethyl)amino)-N-(1-methyl-3-(((1-methylpiperidin-3-yl)methyl)carbamoyl)-1H-pyrazol-4-yl)-[2,4′-bipyridine]-6-carboxamide]	0.26 µM
Cn1cc(NC(=O)c2cccc(-c3ccnc(NCC4CC4)c3)n2)c(C(=O)NCCn2cccn2)n1 [Example 50, N-(3-((2-(1H-pyrazol-1-yl)ethyl)carbamoyl)-1-methyl-1H-pyrazol-4-yl)-2′-((cyclopropylmethyl)amino)-[2,4′-bipyridine]-6-carboxamide]	2.68 µM
Cn1cc(NC(=O)c2ccnc(-c3ccnc(NCC4CC4)c3)n2)c(C(N)=O)n1 [Example 19, N-(3-carbamoyl-1-methyl-1H-pyrazol-4-yl)-2-(2-((cyclopropylmethyl)amino)pyridin-4-yl)pyrimidine-4-carboxamide]	0.283 µM
Cn1cc(NC(=O)c2cccc(-c3ccnc(NCC4CC4)c3)n2)c(C(=O)NCC2CCS(=O)(=O)C2)n1 (stereo not drawn) [Example 45, 2′-((cyclopropylmethyl)amino)-N-(3-(((1,1-dioxidotetrahydrothiophen-3-yl)methyl)carbamoyl)-1-methyl-1H-pyrazol-4-yl)-[2,4′-bipyridine]-6-carboxamide]	3.62 µM
COc1cccc(-c2cccc(C(=O)Nc3cn(C)nc3C(N)=O)n2)c1 [Example 13, N-(3-carbamoyl-1-methyl-1H-pyrazol-4-yl)-6-(3-methoxyphenyl)picolinamide]	0.637 µM
Cn1cc(NC(=O)c2cccc(-c3cccc(OC(F)(F)F)c3)n2)c(C(N)=O)n1 [Example 21, N-(3-carbamoyl-1-methyl-1H-pyrazol-4-yl)-6-(3-(trifluoromethoxy)phenyl)picolinamide]	2.26 µM
Cn1cc(NC(=O)c2cccc(-c3cncc(Cl)c3)n2)c(C(N)=O)n1 [Example 29, N-(3-carbamoyl-1-methyl-1H-pyrazol-4-yl)-5′-chloro-[2,3′-bipyridine]-6-carboxamide]	0.091 µM
Cn1cc(NC(=O)c2cccc(C3=CCCOC3)n2)c(C(N)=O)n1 [Example 27, N-(3-carbamoyl-1-methyl-1H-pyrazol-4-yl)-6-(5,6-dihydro-2H-pyran-3-yl)picolinamide]	0.134 µM
Cn1cc(NC(=O)c2cccc(-c3cccnc3)n2)c(C(N)=O)n1 [Example 12, N-(3-carbamoyl-1-methyl-1H-pyrazol-4-yl)-[2,3′-bipyridine]-6-carboxamide]	0.212 µM
COCCNc1cc(-c2cccc(C(=O)Nc3cn(C)nc3C(N)=O)n2)ccn1 [Example 15, N-(3-carbamoyl-1-methyl-1H-pyrazol-4-yl)-2′-((2-methoxyethyl)amino)-[2,4′-bipyridine]-6-carboxamide]	0.187 µM
Cn1cc(NC(=O)c2cccc(-c3ccnc(NCC(F)(F)F)c3)n2)c(C(N)=O)n1 [Example 18, N-(3-carbamoyl-1-methyl-1H-pyrazol-4-yl)-2′-((2,2,2-trifluoroethyl)amino)-[2,4′-bipyridine]-6-carboxamide]	0.127 µM
Cn1cc(-c2cccc(C(=O)Nc3cn(C)nc3C(N)=O)n2)cn1 [Example 25, N-(3-carbamoyl-1-methyl-1H-pyrazol-4-yl)-6-(1-methyl-1H-pyrazol-4-yl)picolinamide]	0.032 µM
Cn1cc(NC(=O)c2cccc(-c3ccc(N4CCOCC4)nc3)n2)c(C(N)=O)n1 [Example 23, N-(3-carbamoyl-1-methyl-1H-pyrazol-4-yl)-6′-morpholino-[2,3′-bipyridine]-6-carboxamide]	1.1 µM
Cn1cc(NC(=O)c2cccc(-c3ccsc3)n2)c(C(N)=O)n1 [Example 22, N-(3-carbamoyl-1-methyl-1H-pyrazol-4-yl)-6-(thiophen-3-yl)picolinamide]	0.362 µM
Cn1cc(NC(=O)c2cccc(N3CCNCC3)n2)c(C(N)=O)n1 [Example 10, N-(3-carbamoyl-1-methyl-1H-pyrazol-4-yl)-6-(piperazin-1-yl)picolinamide]	3.45 µM

The next lines start with the values.

IC50	SMILES
0.649 µM	Cn1cc(NC(=O)c2cccc(-n3cccc3)n2)c(C(N)=O)n1 [Example 2, N-(3-carbamoyl-1-methyl-1H-pyrazol-4-yl)-6-(1H-pyrrol-1-yl)picolinamide]
0.186 µM	CN(C)[C@H]1CN(C(=O)c2nn(C)cc2NC(=O)c2cccc(-c3ccnc(NCC4CC4)c3)n2)C[C@@H]1O [Example 46, 2′-((cyclopropylmethyl)amino)-N-(3-((3S,4S)-3-(dimethylamino)-4-hydroxypyrrolidine-1-carbonyl)-1-methyl-1H-pyrazol-4-yl)-[2,4′-bipyridine]-6-carboxamide]
2.67 µM	Cn1cc(NC(=O)c2cccc(-c3ccnc(NCC4CC4)c3)n2)c(C(=O)NCCc2cnccn2)n1 [Example 44, 2′-((cyclopropylmethyl)amino)-N-(1-methyl-3-((2-(pyrazin-2-yl)ethyl)carbamoyl)-1H-pyrazol-4-yl)-[2,4′-bipyridine]-6-carboxamide]
0.729 µM	CN1CCC(CNC(=O)c2nn(C)cc2NC(=O)c2cccc(-c3ccnc(NCC4CC4)c3)n2)C1 (stereo not drawn) [Example 34, 2′-((cyclopropylmethyl)amino)-N-(1-methyl-3-(((1-methylpyrrolidin-3-yl)methyl)carbamoyl)-1H-pyrazol-4-yl)-[2,4′-bipyridine]-6-carboxamide]
1.3 µM	Cn1cc(NC(=O)c2cccc(C3=CCS(=O)(=O)CC3)n2)c(C(N)=O)n1 [Example 26, N-(3-carbamoyl-1-methyl-1H-pyrazol-4-yl)-6-(1,1-dioxido-3,6-dihydro-2H-thiopyran-4-yl)picolinamide]
0.785 µM	Cn1cc(NC(=O)c2cccc(-c3ccnc(NC(=O)OC(C)(C)C)c3)n2)c(C(N)=O)n1 [Example 4, tert-butyl(6-((3-carbamoyl-1-methyl-1H-pyrazol-4-yl)carbamoyl)-[2,4′-bipyridin]-2′-yl)carbamate]
2.13 µM	COc1ncccc1-c1cccc(C(=O)Nc2cn(C)nc2C(N)=O)n1 [Example 20, N-(3-carbamoyl-1-methyl-1H-pyrazol-4-yl)-2′-methoxy-[2,3′-bipyridine]-6-carboxamide]
2.43 µM	Cn1cc(NC(=O)c2cccc(-c3ccnc(NCC4CC4)c3)n2)c(C(=O)NCc2nncs2)n1 [Example 48, N-(3-(((1,3,4-thiadiazol-2-yl)methyl)carbamoyl)-1-methyl-1H-pyrazol-4-yl)-2′-((cyclopropylmethyl)amino)-[2,4′-bipyridine]-6-carboxamide]
1.58 µM	Cn1cc(NC(=O)c2cccc(-c3ccnc(NCC4CC4)c3)n2)c(C(=O)Nc2cncnc2)n1 [Example 43, 2′-((cyclopropylmethyl)amino)-N-(1-methyl-3-(pyrimidin-5-ylcarbamoyl)-1H-pyrazol-4-yl)-[2,4′-bipyridine]-6-carboxamide]
0.477 µM	Cn1cc(NC(=O)c2cccc(-c3ccnc(NCC4CCOCC4)c3)n2)c(C(N)=O)n1 [Example 17, N-(3-carbamoyl-1-methyl-1H-pyrazol-4-yl)-2′-(((tetrahydro-2H-pyran-4-yl)methyl)amino)-[2,4′-bipyridine]-6-carboxamide]
0.739 µM	CN1CCC=C(c2cccc(C(=O)Nc3cn(C)nc3C(N)=O)n2)C1 [Example 33, N-(3-carbamoyl-1-methyl-1H-pyrazol-4-yl)-1′-methyl-1′,2′,5′,6′-tetrahydro-[2,3′-bipyridine]-6-carboxamide]
0.19 µM	Cn1cc(NC(=O)c2cccc(-c3ccnc(NCC4CC4)c3)n2)c(C(=O)N2CC(CN)C2)n1 [Example 42, N-(3-(3-(aminomethyl)azetidine-1-carbonyl)-1-methyl-1H-pyrazol-4-yl)-2′-((cyclopropylmethyl)amino)-[2,4′-bipyridine]-6-carboxamide]
1.54 µM	Cn1cc(NC(=O)c2cccc(-c3ccnc(NCC4CC4)c3)n2)c(C(=O)NCc2ncc[nH]2)n1 [Example 36, N-(3-(((1H-imidazol-2-yl)methyl)carbamoyl)-1-methyl-1H-pyrazol-4-yl)-2′-((cyclopropylmethyl)amino)-[2,4′-bipyridine]-6-carboxamide]
2.29 µM	Cn1cc(NC(=O)c2cccc(-c3ccnc(NCC4CC4)c3)n2)c(C(=O)NC2CCOC2)n1 (stereo not drawn) [Example 51, 2′-((cyclopropylmethyl)amino)-N-(1-methyl-3-((tetrahydrofuran-3-yl)carbamoyl)-1H-pyrazol-4-yl)-[2,4′-bipyridine]-6-carboxamide]
2.91 µM	CN1CCN(C(=O)c2nn(C)cc2NC(=O)c2cccc(-c3ccnc(NCC4CC4)c3)n2)CC1 [Example 39, 2′-((cyclopropylmethyl)amino)-N-(1-methyl-3-(4-methylpiperazine-1-carbonyl)-1H-pyrazol-4-yl)-[2,4′-bipyridine]-6-carboxamide]
0.074 µM	Cn1cc(NC(=O)c2cccc(-c3ccnc(NCC4CC4)c3)n2)c(C(N)=O)n1 [Example 1, N-(3-carbamoyl-1-methyl-1H-pyrazol-4-yl)-2′-((cyclopropylmethyl)amino)-[2,4′-bipyridine]-6-carboxamide]
3.22 µM	Cn1cc(NC(=O)c2cccc(N3CCOCC3)n2)c(C(N)=O)n1 [Example 9, N-(3-carbamoyl-1-methyl-1H-pyrazol-4-yl)-6-morpholinopicolinamide]

Reference: patent US9586948B2, “Inhibitors of IRAK4 activity” (MERCK SHARP & DOHME CORP., priority 2012, dated 2017)
